Results: patent publication US11040981B2, “Pyrrolotriazine compounds and methods of inhibiting TAM kinases” (Syros Pharmaceuticals, Inc., priority 2017, dated 2021)

How the values were obtained:
TYRO3 = target: T1, TYRO3 (Homo sapiens, UniProt Q06418); assay: TR-FRET kinase activity assay, TYRO3; format: biochemical; conditions: ATP at Km, 60 minutes
T1 sequence (Q06418 41-890): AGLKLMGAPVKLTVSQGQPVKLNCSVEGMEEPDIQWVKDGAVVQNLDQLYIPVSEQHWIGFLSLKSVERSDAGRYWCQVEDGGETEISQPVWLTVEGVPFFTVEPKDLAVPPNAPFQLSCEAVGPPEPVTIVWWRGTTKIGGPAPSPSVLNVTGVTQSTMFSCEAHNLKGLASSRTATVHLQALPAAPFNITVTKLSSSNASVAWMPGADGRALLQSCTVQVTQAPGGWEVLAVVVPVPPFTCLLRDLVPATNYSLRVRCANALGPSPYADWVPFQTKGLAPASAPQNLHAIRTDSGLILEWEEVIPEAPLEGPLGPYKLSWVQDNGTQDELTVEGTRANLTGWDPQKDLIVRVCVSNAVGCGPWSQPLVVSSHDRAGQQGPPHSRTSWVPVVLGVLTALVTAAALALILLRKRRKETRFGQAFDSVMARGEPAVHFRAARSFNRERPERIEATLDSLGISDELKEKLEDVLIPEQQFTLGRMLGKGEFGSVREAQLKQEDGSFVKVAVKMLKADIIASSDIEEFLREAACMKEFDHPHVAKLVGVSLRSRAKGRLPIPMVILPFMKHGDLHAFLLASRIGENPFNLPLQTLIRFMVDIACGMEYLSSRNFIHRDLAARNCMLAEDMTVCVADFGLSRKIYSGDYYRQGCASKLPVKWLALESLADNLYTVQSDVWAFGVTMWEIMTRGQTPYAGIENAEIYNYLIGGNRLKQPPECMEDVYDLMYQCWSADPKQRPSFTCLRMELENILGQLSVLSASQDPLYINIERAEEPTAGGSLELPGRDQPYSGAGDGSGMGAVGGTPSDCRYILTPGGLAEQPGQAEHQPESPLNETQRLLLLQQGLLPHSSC
In short: (§1)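 Enzyme + labelled peptide + cpd premixed; ATP at per-enzyme Km starts rxn. 60 min RT, HEPES pH 7.5/MgCl2/EGTA/Brij 35/DTT buffer. Stop 12.5 mM EDTA, Eu phospho-Ab 30 min dark, TR-FRET read → IC50.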

MERTK = target: T2, MERTK (Homo sapiens, UniProt Q12866); assay: TR-FRET kinase activity assay, MERTK; format: biochemical
T2 sequence (Q12866 21-999): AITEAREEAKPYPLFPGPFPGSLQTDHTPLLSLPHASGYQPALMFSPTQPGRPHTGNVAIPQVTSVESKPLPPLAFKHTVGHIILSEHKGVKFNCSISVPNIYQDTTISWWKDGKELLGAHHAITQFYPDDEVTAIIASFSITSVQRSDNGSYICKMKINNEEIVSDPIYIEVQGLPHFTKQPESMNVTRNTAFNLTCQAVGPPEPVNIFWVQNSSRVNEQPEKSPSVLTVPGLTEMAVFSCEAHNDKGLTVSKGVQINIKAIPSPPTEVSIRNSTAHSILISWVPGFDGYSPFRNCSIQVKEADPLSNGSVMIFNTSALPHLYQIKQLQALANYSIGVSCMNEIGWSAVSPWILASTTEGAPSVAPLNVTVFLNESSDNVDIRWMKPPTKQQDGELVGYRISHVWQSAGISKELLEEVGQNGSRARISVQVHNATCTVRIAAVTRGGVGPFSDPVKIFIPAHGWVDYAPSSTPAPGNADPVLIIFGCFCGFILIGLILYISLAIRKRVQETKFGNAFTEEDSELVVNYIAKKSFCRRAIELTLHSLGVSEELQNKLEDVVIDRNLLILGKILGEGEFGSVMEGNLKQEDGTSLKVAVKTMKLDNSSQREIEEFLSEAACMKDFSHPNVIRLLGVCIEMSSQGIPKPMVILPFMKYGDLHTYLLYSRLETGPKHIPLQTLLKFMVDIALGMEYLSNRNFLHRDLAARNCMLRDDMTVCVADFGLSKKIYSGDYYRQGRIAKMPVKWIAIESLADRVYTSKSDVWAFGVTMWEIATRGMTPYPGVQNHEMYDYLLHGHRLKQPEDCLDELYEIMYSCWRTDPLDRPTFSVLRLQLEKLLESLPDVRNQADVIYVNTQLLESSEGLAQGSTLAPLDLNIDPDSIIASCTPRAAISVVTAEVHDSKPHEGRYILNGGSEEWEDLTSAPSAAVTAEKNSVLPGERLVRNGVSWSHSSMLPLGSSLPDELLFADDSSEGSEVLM
In short: as §1

COC[C@H](C)Nc1ncc2c(-c3ccnc(N4CCC(C)(O)C4)c3)cc(C3CCC(O)CC3)n2n1 (stereo partly drawn) [Compound 633]
IC50 (TYRO3): ≤ 100 nM | IC50 (MERTK; TR-FRET activity assay, ATP at Km, 60 minutes, read-out: Mer IC50): ≤ 100 nM | FLT3/Mer ratio (FLT3 IC50/Mer IC50) (MERTK; ratio calculated as FLT3 IC50/Mer IC50): +++ (“+++” represents a ratio of >100)
